Reference: ChEMBL document CHEMBL3886569, “Substituted isoquinolines as CRTH2 receptor modulators” (2016)

Biological target: T1, Prostaglandin D2 receptor 2 (Homo sapiens, UniProt Q9Y5Y4)
T1 sequence (Q9Y5Y4 whole entry): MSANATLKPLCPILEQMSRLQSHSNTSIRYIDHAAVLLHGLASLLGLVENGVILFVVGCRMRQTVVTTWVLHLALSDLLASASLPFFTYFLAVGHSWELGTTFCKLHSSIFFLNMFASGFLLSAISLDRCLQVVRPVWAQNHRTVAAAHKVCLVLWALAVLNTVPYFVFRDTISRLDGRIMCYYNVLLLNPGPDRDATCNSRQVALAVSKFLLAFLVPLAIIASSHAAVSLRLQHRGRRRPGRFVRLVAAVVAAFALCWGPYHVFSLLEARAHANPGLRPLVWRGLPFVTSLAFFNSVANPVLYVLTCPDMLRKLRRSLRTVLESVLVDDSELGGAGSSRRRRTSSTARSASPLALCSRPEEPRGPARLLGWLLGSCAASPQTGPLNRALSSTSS
Assay: Radioligand Binding Assay: Radioligand binding was performed using filtration or scintillation proximity assay (SPA) technology. SPA assays were done at room temperature in 10 mM HEPES pH 7.4, 1 mM EDTA containing 2 mM MnCl2 and 16 nM [3H]-PGD2 (PerkinElmer, Waltham, Mass.) (164 Ci mmol-1), in a final volume of 0.05 mL. Competing ligands were diluted in dimethylsulfoxide and added using very low volumes (500 nL). The reaction was initiated by the addition of a mixture of 3.52 ug of membrane protein prepared from a human embryonic kidney (HEK)-hCRTH2 cell line adhered to 140 ug of wheatgerm agglutinin SPA beads (PerkinElmer). Total and non-specific binding were determined in the absence and the presence of a CRTH2 antagonist, respectively. The reaction was routinely conducted for 60 minutes at room temperature followed by centrifugation for 5 minutes at 1000 RPM. The radioactivity was measured with a TopCountNXT (PerkinElmer). Filtration binding assays were done in a similar way with minor differences. The assay volume was 0.20 mL and competing ligands in dimethylsulfoxide were added in 2 uL. [3H]-PGD2 was used at 0.6 nM, and reactions were initiated by the addition of 10 ug of membrane protein. Reactions were terminated by filtration through GF/C filter plates (PerkinElmer) presoaked in 10 mM HEPES. After washing with buffer, plates were dried in a 50° C. oven for 1 h, scintillation cocktail was added and radioactivity was measured. Results determined using the SPA-based assay were similar to those from the filtration binding assay.

Ki | Structure (SMILES)
21.5 nM | O=C(O)CCCCc1cc2cc(-c3noc(C4Cc5ccccc5C4)n3)ccc2c(=O)n1-c1ccc(F)cc1
10.9 nM | O=C(CCCCc1cc2cc(C(=O)N[C@@H]3CCCc4cc(F)ccc43)ccc2c(=O)n1-c1ccc(F)cc1)NS(=O)(=O)C1CC1
25.4 nM | CC1(c2nc3ccc(F)cc3o2)CC(c2ccc3c(=O)n(-c4ccc(F)cc4)c(CCCCC(=O)O)cc3c2)=NO1 (stereo not given)
7.79 nM | O=C(O)CCCCc1cc2cc(-c3noc(Cc4ccc(F)cc4)n3)ccc2c(=O)n1-c1ccc(F)cc1
79.1 nM | CC1(c2nc3ccc(F)cc3o2)CC(c2ccc3c(=O)n(-c4ccc(F)cc4)c(CCCCC(=O)O)c(Cl)c3c2)=NO1 (stereo not given)
